The source of these data is patent US8822471B2, “Compounds, pharmaceutical compositions and uses thereof” (Boehringer Ingelheim International GmbH, priority 2011, dated 2014).

For the experiment, the target named is T1, human GPR119 (Homo sapiens, UniProt Q8TDV5).
T1 construct: expression vector for human GPR119 cDNA (Acc. No. NP_848566); expressed in transfected cells
T1 sequence (Q8TDV5 1-335): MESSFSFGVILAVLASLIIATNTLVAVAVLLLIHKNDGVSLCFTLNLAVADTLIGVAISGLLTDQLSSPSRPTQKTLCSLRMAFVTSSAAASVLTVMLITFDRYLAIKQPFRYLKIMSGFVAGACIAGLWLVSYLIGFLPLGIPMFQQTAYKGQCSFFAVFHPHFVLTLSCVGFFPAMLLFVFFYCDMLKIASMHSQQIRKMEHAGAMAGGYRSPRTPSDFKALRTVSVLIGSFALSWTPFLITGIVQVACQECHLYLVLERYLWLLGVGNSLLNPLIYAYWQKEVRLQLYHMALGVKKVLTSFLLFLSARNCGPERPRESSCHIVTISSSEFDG
Nature of the experiment: AlphaScreen cAMP assay in MIN6 cells stably transfected with human GPR119. In kind it is cell-based. Particulars: Min-6/hGPR119 cells, AlphaScreen cAMP Assay Kit, 45 minutes incubation at room temperature. As to the method:
The compounds of formula I according to the invention modulate the activity of the G-protein-coupled receptor GPR119. The effect of the compounds on the activation of GPR119 and on the stimulation of intracellular cAMP concentration is determined using the AlphaScreen cAMP Assay Kit (Cat. No. #6760625R) made by PerkinElmer.
MIN6 cells [Miyazaki J et al. Endocrinology. 1990 July; 127(1):126-32] are stably transfected with an expression vector for human GPR119 cDNA (Acc. No. NP_848566). Min-6/hGPR119 cells are cultured in DMEM, 10% FBS, 50 μM β-mercaptoethanol, 0.3 mg/mL Geniticin, 2 mM GlutaMAX at 37° C. 5% CO2. For the assay, the cells are seeded in Optiplates (white, 384-well, 160 W-barcoded, TC, sterile with lid, Cat. No. #6007688 (Perkin Elmer); 10000 cells/well; 50 μl). The plates covered with lids are then incubated for 24 hours at 37° C./5% CO2. After the medium is aspirated from the wells completely, 10 μl of the test compound are added, the compounds are diluted using stimulating buffer (140 mM NaCl, 3.6 mM KCl, 0.5 mM NaH2PO4, 0.5 mM MgSO4, 1.5 mM CaCl2, 10 mM Hepes, 5 mM NaHCO3; pH 7.4. 0.5 mM IBMX and 0.1% BSA, the final DMSO concentration is 1%). After 45 minutes incubation at room temperature (approx. 20° C.), the cAMP concentrations are determined using the AlphaScreen cAMP Assay Kit (Cat. No. #6760625R from PerkinElmer).
(In Alpha technology, singlet oxygen from a donor bead excites a nearby acceptor bead.)

For orientation: EC50 means the concentration at which the effect is half-maximal. Low values mean an effect from little substance, high ones a need for much substance. The molecule `O=C(c1ccc(-c2cnco2)cc1)N(C1CC1)C1CCN(c2ccc(C(F)(F)F)cn2)CC1` [Example 31, N-Cyclopropyl-4-oxazol-5-yl-N-[1-(5-trifluoromethyl-pyridin-2-yl)-piperidin-4-yl]-benzamide] had an EC50 of 38 nM.
The figure for `O=C(c1ccc(-c2cnco2)cc1)N(C1CC1)C1CCN(c2ccc(Br)cn2)CC1` [Example 32, N-[1-(5-Bromo-pyridin-2-yl)-piperidin-4-yl]-N-cyclopropyl-4-oxazol-5-yl-benzamide] is 38 nM; for `O=C(c1ccc(-c2cnco2)cc1)N(C1CC1)C1CCN(c2ccc(F)cn2)CC1` [Example 33, N-Cyclopropyl-N-[1-(5-fluoro-pyridin-2-yl)-piperidin-4-yl]-4-oxazol-5-yl-benzamide] it is 276 nM.
The figure for `Cc1ccc(N2CCC(N(C(=O)c3ccc(-c4cnco4)cc3)C3CC3)CC2)nc1` [Example 34, N-Cyclopropyl-N-[1-(5-methyl-pyridin-2-yl)-piperidin-4-yl]-4-oxazol-5-yl-benzamide] is 85 nM.
The value for `O=C(c1ccc(-c2cnco2)cc1)N(C1CC1)C1CCN(c2nc(Cl)ns2)CC1` [Example 35, N-[1-(3-Chloro-[1,2,4]thiadiazol-5-yl)-piperidin-4-yl]-N-cyclopropyl-4-oxazol-5-yl-benzamide] was 53 nM.
In turn, `CC(C)Nc1nsc(N2CCC(N(C(=O)c3ccc(-c4cnco4)cc3)C3CC3)CC2)n1` [Example 36, N-Cyclopropyl-N-[1-(3-isopropylamino-[1,2,4]thiadiazol-5-yl)-piperidin-4-yl]-4-oxazol-5-yl-benzamide] displayed an EC50 of 83 nM.
`CC(C)Oc1nsc(N2CCC(N(C(=O)c3ccc(-c4cnco4)cc3)C3CC3)CC2)n1` [Example 37, N-Cyclopropyl-N-[1-(3-isopropoxy-[1,2,4]thiadiazol-5-yl)-piperidin-4-yl]-4-oxazol-5-yl-benzamide]: the EC50 is 55 nM.
`CCc1noc(N2CCC(N(C(=O)c3ccc(-c4ccc(C(N)=O)cc4)cc3)C3CC3)CC2)n1` [Example 38, Biphenyl-4,4′-dicarboxylic acid 4-amide 4′-{cyclopropyl-[1-(3-ethyl-[1,2,4]oxadiazol-5-yl)-piperidin-4-yl]-amide}] yielded an EC50 of 204 nM.
The figure for `NC(=O)c1ccc(-c2ccc(C(=O)N(C3CC3)C3CCN(c4nc(-c5ccccc5)no4)CC3)cc2)cc1` [Example 39, Biphenyl-4,4′-dicarboxylic acid 4′-amide 4-{cyclopropyl-[1-(3-phenyl-[1,2,4]oxadiazol-5-yl)-Piperidin-4-yl]-amide}] is 87 nM; for `O=C(c1ccc(-c2cnco2)cc1)N(C1CC1)C1CCN(c2nc(-c3ccc(Br)cc3)no2)CC1` [Example 40, N-{1-[3-(4-Bromo-phenyl)-[1,2,4]oxadiazol-5-yl]-piperidin-4-yl}-N-cyclopropyl-4-oxazol-5-yl-benzamide] it is 11 nM; for `Cc1ncoc1-c1ccc(C(=O)N(C2CC2)C2CCN(c3nc(-c4ccccc4)no3)CC2)cc1` [Example 41, N-Cyclopropyl-4-(4-methyl-oxazol-5-yl)-N-[1-(3-phenyl-[1,2,4]oxadiazol-5-yl)-piperidin-4-yl]-benzamide] it is 38 nM.
The figure for `Cc1ncoc1-c1ccc(C(=O)N(C2CC2)C2CCN(c3nc(C(C)C)no3)CC2)cc1` [Example 42, N-Cyclopropyl-N-[1-(3-isopropyl-[1,2,4]oxadiazol-5-yl)-piperidin-4-yl]-4-(4-methyl-oxazol-5-yl)-benzamide] is 17 nM.
The value for `Cc1ncoc1-c1ccc(C(=O)N(C2CC2)C2CCN(c3ncc(Cl)cn3)CC2)cc1` [Example 43, N-[1-(5-Chloro-pyrimidin-2-yl)-piperidin-4-yl]-N-cyclopropyl-4-(4-methyl-oxazol-5-yl)-benzamide] was 46 nM.
`COc1ccc(-c2noc(N3CCC(N(C(=O)c4ccc(-c5cnco5)cc4)C4CC4)CC3)n2)cc1` [Example 44, N-Cyclopropyl-N-{1-[3-(4-methoxy-phenyl)-[1,2,4]oxadiazol-5-yl]-piperidin-4-yl}-4-oxazol-5-yl-benzamide] returned an EC50 of 31 nM.
The value for `CCOC(=O)c1noc(N2CCC(N(C(=O)c3ccc(-c4cnco4)cc3)C3CC3)CC2)n1` [Example 45, 5-{4-[Cyclopropyl-(4-oxazol-5-yl-benzoyl)-amino]-piperidin-1-yl}-[1,2,4]oxadiazole-3-carboxylic acid ethyl ester] was 259 nM; that for `CC(C)(O)c1noc(N2CCC(N(C(=O)c3ccc(-c4cnco4)cc3)C3CC3)CC2)n1` [Example 46, N-Cyclopropyl-N-{1-[3-(1-hydroxy-1-methyl-ethyl)-[1,2,4]oxadiazol-5-yl]-piperidin-4-yl}-4-oxazol-5-yl-benzamide] was 731 nM; that for `O=C(c1ccc(-c2cnco2)cc1)N(C1CC1)C1CCN(c2noc(-c3ccccc3)n2)CC1` [Example 47, N-Cyclopropyl-4-oxazol-5-yl-N-[1-(5-phenyl-[1,2,4]oxadiazol-3-yl)-piperidin-4-yl]-benzamide] was 37 nM.
The value for `CCc1nc(N2CCC(N(C(=O)c3ccc(-c4cnco4)cc3)C3CC3)CC2)no1` [Example 48, N-Cyclopropyl-N-[1-(5-ethyl-[1,2,4]oxadiazol-3-yl)-piperidin-4-yl]-4-oxazol-5-yl-benzamide] was 47 nM; that for `CC(C)c1nc(N2CCC(N(C(=O)c3ccc(-c4cnco4)cc3)C3CC3)CC2)no1` [Example 49, N-Cyclopropyl-N-[1-(5-isopropyl-[1,2,4]oxadiazol-3-yl)-piperidin-4-yl]-4-oxazol-5-yl-benzamide] was 14 nM.
The value for `O=C(c1ccc(-c2cnco2)cc1)N(C1CC1)C1CCN(c2noc(-c3cnccn3)n2)CC1` [Example 50, N-Cyclopropyl-4-oxazol-5-yl-N-[1-(5-pyrazin-2-yl-[1,2,4]oxadiazol-3-yl)-piperidin-4-yl]-benzamide] was 277 nM; that for `O=C(c1ccc(-c2cnco2)cc1)N(C1CC1)C1CCN(c2noc(C3CC3)n2)CC1` [Example 51, N-Cyclopropyl-N-[1-(5-cyclopropyl-[1,2,4]oxadiazol-3-yl)-piperidin-4-yl]-4-oxazol-5-yl-benzamide] was 56 nM.
As for `O=C(c1ccc(-c2cnco2)cc1)N(C1CC1)C1CCN(c2noc(C3CCC3)n2)CC1` [Example 52, N-[1-(5-Cyclobutyl-[1,2,4]oxadiazol-3-yl)-piperidin-4-yl]-N-cyclopropyl-4-oxazol-5-yl-benzamide], it took 17 nM to reach a half-maximal effect (EC50).
The figure for `CCc1cnc(N2CCC(N(C(=O)c3ccc(-c4cnco4)cc3)C3CC3)C(C)C2)nc1` (stereo not shown) [Example 53, N-Cyclopropyl-N-[1-(5-ethyl-pyrimidin-2-yl)-3-methyl-piperidin-4-yl]-4-oxazol-5-yl-benzamide] is 99 nM.
Consider `CC1CN(c2nc(-c3ccccc3)no2)CCC1N(C(=O)c1ccc(-c2cnco2)cc1)C1CC1` (stereo not shown) [Example 54, N-Cyclopropyl-N-[3-methyl-1-(3-phenyl-[1,2,4]oxadiazol-5-yl)-piperidin-4-yl]-4-oxazol-5-yl-benzamide], for which a half-maximal response (EC50) required 43 nM.
The value for `O=C(c1ccc(-c2cnco2)cc1)N(C1CC1)C1CCN(c2nc(CC3CCOCC3)no2)CC1` [Example 55, N-Cyclopropyl-4-oxazol-5-yl-N-{1-[3-(tetrahydro-pyran-4-ylmethyl)-[1,2,4]oxadiazol-5-yl]-piperidin-4-yl}-benzamide] was 1150 nM.
The figure for `O=C(c1ccc(-c2cnco2)cc1)N(C1CC1)C1CCN(c2nc(C3CCOCC3)no2)CC1` [Example 56, N-Cyclopropyl-4-oxazol-5-yl-N-{1-[3-(tetrahydro-pyran-4-yl)-[1,2,4]oxadiazol-5-yl]-piperidin-4-yl}-benzamide] is 159 nM; for `C=CCCc1noc(N2CCC(N(C(=O)c3ccc(-c4cnco4)cc3)C3CC3)CC2)n1` [Example 57, N-[1-(3-But-3-enyl-[1,2,4]oxadiazol-5-yl)-piperidin-4-yl]-N-cyclopropyl-4-oxazol-5-yl-benzamide] it is 22 nM.
`CC(C)(CO)c1noc(N2CCC(N(C(=O)c3ccc(-c4cnco4)cc3)C3CC3)CC2)n1` [Example 58, N-Cyclopropyl-N-{1-[3-(2-hydroxy-1,1-dimethyl-ethyl)-[1,2,4]oxadiazol-5-yl]-piperidin-4-yl}-4-oxazol-5-yl-benzamide] registered an EC50 of 629 nM. Against the preceding molecule, the EC50 is about 29-fold higher.
